Legend:
[1] = Measured solubility at pH 6.5; type: physicochemical
[2] = Plasma stability and formation of treprostinil, human plasma; type: in vitro ADME; details: prodrug dosed at 1 μM
Description: (§1) Studies were carried out in mixed-gender human plasma male Sprague-Dawley rat plasma, and male Beagle dog plasma. All plasma was obtained from Bioreclamation and collected on K2EDTA. Plasma was adjusted to pH 7.4 prior to initiating the experiments. DMSO stocks were first prepared for the test articles. […] The vials were kept in a benchtop Thermomixer® for the duration of the experiment. […] Samples were stored at 4° C. until the end of the experiment. After the final time point was sampled, the plate was mixed and then centrifuged at 3000 rpm for 10 minutes.

[3] = Plasma stability and formation of treprostinil, rat plasma; type: in vitro ADME; details: prodrug dosed at 1 μM
Description: as §1

[4] = Plasma stability and formation of treprostinil, dog plasma; type: in vitro ADME; details: prodrug dosed at 1 μM
Description: as §1

[5] = Stability and formation of treprostinil in human cryopreserved hepatocytes
[6] = Stability and formation of treprostinil in rat cryopreserved hepatocytes
[7] = Stability and formation of treprostinil in dog cryopreserved hepatocytes
[8] = molecular target: T1, prostaglandin I2 (PGI2) receptor (IP) (Homo sapiens, UniProt P43119); assay: IP receptor cAMP assay (agonist mode); type: cell-based; details: for Activity, IP Relative to Tre: relative to treprostinil EC50 values, image character = too high to realistically calculate
T1 construct: expressed in transfected cells; host or cells: CHO-K1
T1 sequence (P43119 whole entry): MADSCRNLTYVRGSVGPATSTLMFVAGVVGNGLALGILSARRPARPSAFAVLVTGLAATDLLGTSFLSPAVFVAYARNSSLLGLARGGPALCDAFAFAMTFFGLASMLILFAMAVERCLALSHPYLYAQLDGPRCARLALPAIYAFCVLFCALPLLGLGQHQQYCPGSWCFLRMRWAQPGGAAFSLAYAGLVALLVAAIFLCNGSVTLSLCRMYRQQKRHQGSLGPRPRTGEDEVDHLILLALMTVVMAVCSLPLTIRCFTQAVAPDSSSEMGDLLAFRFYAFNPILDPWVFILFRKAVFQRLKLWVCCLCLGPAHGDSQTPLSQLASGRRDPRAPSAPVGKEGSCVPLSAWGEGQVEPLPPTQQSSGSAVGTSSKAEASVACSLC

[9] = molecular target: T2, prostaglandin E2 (PGE2) receptor 2 (EP2) (Homo sapiens, UniProt P43116); assay: EP2 receptor cAMP assay (agonist mode); type: cell-based; details: cAMP, cells overexpressing human EP2
T2 construct: expressed in transfected cells; host or cells: HEK293T
T2 sequence (P43116 whole entry): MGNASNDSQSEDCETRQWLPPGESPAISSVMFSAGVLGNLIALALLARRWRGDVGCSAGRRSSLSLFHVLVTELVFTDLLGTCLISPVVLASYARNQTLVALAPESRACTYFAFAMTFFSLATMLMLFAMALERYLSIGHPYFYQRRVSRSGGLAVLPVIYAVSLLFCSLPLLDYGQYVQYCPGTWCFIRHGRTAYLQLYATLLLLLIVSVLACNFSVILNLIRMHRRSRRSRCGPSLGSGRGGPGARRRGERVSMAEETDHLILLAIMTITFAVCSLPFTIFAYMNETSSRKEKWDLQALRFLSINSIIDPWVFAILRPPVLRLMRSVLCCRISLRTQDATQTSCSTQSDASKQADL
Description: (§2) Assay Buffer: • EP1 Calcium and DP1 cAMP Assays: HBSS plus 20 mM HEPES • EP2 and IP1 cAMP Assays: 1 mM IBMX in HBSS plus 20 mM HEPES
(§3) Cells were thawed from frozen cells and resuspended in assay buffer at desired concentrations. cAMP or Calcium assays were performed according to the manufacturer's protocol using Multiscreen™ TR-FRET cAMP 1.0 No Wash Assay Kit or Multiscreen™ Calcium 1.0 No Wash Kit.
(§4) Gas Cyclic AMP (cAMP) Assay: In agonist mode testing, cells were seeded in a 384-well plate at an appropriate density and then were treated with compounds and incubated at 37° C. for 20 minutes. The reaction was terminated by sequentially adding sequentially adding trFluor™ Eu-labeled cAMP and trFluor™ 650-labeled anti-cAMP antibody in lysis buffer. […] All testing wells contained 0.1% DMSO in the final concentrations.
(§5) Data in graphs are represented in Mean±SD. Dose-dependent responses were fitted with sigmoidal dose-response curves allowing variable slopes using GraphPad Prism version 6 (Graphpad Prism).
(§6) These studies used cell lines overexpressing either human IP, EP2 or DP1, or EP1 receptors, and following incubation with varying concentrations of compounds, cAMP levels were measured using Fluorescence Resonance Energy Transfer (FRET).

[10] = molecular target: T3, prostaglandin D2 (PGD2) receptor 1 (DP1) (Homo sapiens, UniProt Q13258); assay: DP1 receptor cAMP assay (agonist mode); type: cell-based; details: for Activity, DP1 Relative to Tre: relative to treprostinil EC50 values, * partial agonists or ambiguous dose-response curves
T3 construct: expressed in transfected cells; host or cells: HEK293T
T3 sequence (Q13258 1-359): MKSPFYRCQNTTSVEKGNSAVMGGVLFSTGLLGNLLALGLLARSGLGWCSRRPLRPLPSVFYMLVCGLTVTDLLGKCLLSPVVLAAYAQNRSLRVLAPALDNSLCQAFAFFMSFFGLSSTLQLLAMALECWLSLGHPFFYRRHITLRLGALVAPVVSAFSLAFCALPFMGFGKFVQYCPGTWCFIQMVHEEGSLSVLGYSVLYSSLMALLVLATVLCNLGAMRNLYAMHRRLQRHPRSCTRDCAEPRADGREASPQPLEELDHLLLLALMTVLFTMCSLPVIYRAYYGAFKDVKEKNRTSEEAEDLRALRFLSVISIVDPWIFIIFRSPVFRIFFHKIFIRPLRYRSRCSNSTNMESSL
Description: as §2, §3, §4, §5, §6

[11] = Hydrolysis of treprostinil prodrugs to treprostinil at pH 6, 7 and 8 and 40 C; type: physicochemical
Source text: Tables 26, 27 and 28 present data for hydrolysis of selected treprostinil prodrugs at pH 6, 7 and 8, respectively, and 40 C.

[12] = Stability and formation of treprostinil in human subcutaneous skin homogenate; details: pooled human skin homogenate, 1 μM
Description: For each of the test articles, 495 μL of skin homogenate was added to triplicate centrifuge tubes. To each tube, 5 μL of a 100 μM solution of test article was added, for a final test article dosing concentration of 1 μM. The tubes were placed onto a Thermomixer and maintained at 37° C. with gentle shaking for the duration of the experiment. At each time point (0, 30, 60, and 120 minutes), a 100 μL aliquot was removed from each tube and combined with 200 μL of acetonitrile to stop the stability reaction. The tubes were mixed and centrifuged at 3000 rpm for 10 minutes. Aliquots of supernatant were removed and diluted 1:1 with distilled water containing internal standard (2 μM treprostinil-d4). Calibration standards for the treprostinil analysis were prepared for each test article in a surrogate matrix (supernatant from a mixture of 1:2 human plasma:acetonitrile), at concentrations ranging from 1 μM to 1 nM. Calibration standards were also diluted 1:1 with distilled water containing internal standard.

CCCCC[C@@H](CC[C@@H]1[C@H]2Cc3cccc(OCC(=O)O)c3C[C@H]2C[C@H]1O)OP(=O)(O)O [VI]
Measured Sol [1]: > 10 mg/mL

CCCCC[C@@H](CC[C@@H]1[C@H]2Cc3cccc(OCC(=O)O)c3C[C@H]2C[C@H]1O)OC(=O)OC(C)C [XVII]
Measured Sol [1]: 10 mg/mL

CCCCC[C@@H](CC[C@@H]1[C@H]2Cc3cccc(OCC(=O)O)c3C[C@H]2C[C@H]1O)OC(=O)OCC [XVI]
Measured Sol [1]: 10 mg/mL

treprostinil diphosphate [Prodrug LXXIII]
Formation of Treprostinil, Concentration ([2]; 0 min): 0 µM | Formation of Treprostinil, Concentration ([2]; 15 min): 0 µM | Formation of Treprostinil, Concentration ([2]; 30 min): 0 µM | Formation of Treprostinil, Concentration ([2]; 120 min): 0 µM | Formation of Treprostinil, Concentration [2]: 0 µM | Formation of Treprostinil, Concentration ([3]; 0 min): 0 µM | Formation of Treprostinil, Concentration ([3]; 60 mm): 0 µM | Formation of Treprostinil, Concentration ([3]; 15 min): 0 µM | Formation of Treprostinil, Concentration ([3]; 30 min): 0 µM | Formation of Treprostinil, Concentration ([3]; 120 min): 0 µM | Formation of Treprostinil, Concentration ([4]; 0 min): 0 µM | Formation of Treprostinil, Concentration ([4]; 15 min): 0 µM | Formation of Treprostinil, Concentration ([4]; 30 min): 0 µM | Formation of Treprostinil, Concentration ([4]; 120 min): 0 µM | Formation of Treprostinil, Concentration [4]: 0 µM | Treprostinil Concentration, 15 min [5]: 0.0163 µM | Treprostinil Concentration, 15 min [6]: 0.0097 µM | Treprostinil Concentration, 15 min [7]: 0.0506 µM | Activity, IP Relative to Tre ([8]; Table 24, * partial agonists or ambiguous dose-response curves): 208x | Activity, IP Relative to Tre ([8]; Table 25): 208x | Fold less active than treprostinil at the IP receptor ([8]; cAMP, cells overexpressing human IP): approximately 200 fold | Activity at the EP2 receptor compared to treprostinil [9]: inactive | Activity, DP1 Relative to Tre ([10]; Table 24, image character = too high to realistically calculate): 217x | Activity, DP1 Relative to Tre ([10]; Table 25): 217x | Activity at the DP1 receptor compared to treprostinil ([10]; cAMP, cells overexpressing human DP1): several hundred-fold less active | Hydrolysis of prodrug to treprostinil, % Area, t = 1 week ([11]; pH 6, 40 C): 0.00 % Area | Hydrolysis of prodrug to treprostinil, % Area, t = 2 weeks ([11]; pH 6, 40 C): 0.00 % Area | Hydrolysis of prodrug to treprostinil, % Area, t = 3 weeks ([11]; pH 6, 40 C): 0.00 % Area | Hydrolysis of prodrug to treprostinil, % Area, t = 1 week ([11]; pH 7, 40 C): 0.00 % Area | Hydrolysis of prodrug to treprostinil, % Area, t = 2 weeks ([11]; pH 7, 40 C): 0.00 % Area | Hydrolysis of prodrug to treprostinil, % Area, t = 3 weeks ([11]; pH 7, 40 C): 0.00 % Area | Hydrolysis of prodrug to treprostinil, % Area, t = 1 week ([11]; pH 8, 40 C): 0.00 % Area | Hydrolysis of prodrug to treprostinil, % Area, t = 2 weeks ([11]; pH 8, 40 C): 0.00 % Area | Hydrolysis of prodrug to treprostinil, % Area, t = 3 weeks ([11]; pH 8, 40 C): 0.00 % Area | Percent Remaining (Avg, n = 3) ([12]; 0 min): 100% | Percent Remaining (Avg, n = 3) ([12]; 30 min): 86.2% | Percent Remaining (Avg, n = 3) ([12]; 60 min): 71.2% | Percent Remaining (Avg, n = 3) ([12]; 120 min): 64.0%
